# How the values were obtained:
# [1] = tested on: islets from ankB(+/+) and (+/−) mice; test: Intraislet calcium measurements using Fura-2; type: cell-based, mouse
# Experimental: Islets from 8-10 month ankB(+/+) and (+/−) mice were isolated as described above and incubated overnight in medium containing 11 mM glucose. […] Islets were incubated 45 min at 37° C. Islets were then affixed to small open perifusion chamber (volume 150 μL) with a coverslip bottom using Puramatrix Peptide Hydrigel (BD Biosciences). Chamber was then mounted on a Zeiss Axiovert epifluorescence inverted microscope fitted with a Plan-Neofluar 16x/0.50 objective. The fluorescence (excitation at 355 or 380 nm) was recorded by a slow-scan charged-coupled device (CCD) camera (Andor Technology) and quantitated using AndorIQ software. All perifusions were performed at 37° C. using perfusion buffer containing either 3 mM glucose, 11 mM glucose, 30 mM KCl in 3 mM glucose, or 0.1 mM carbachol in 3 mM glucose. To assay carbachol effects in the absence of calcium, buffer containing 2 mM EGTA and 0 mM Ca^2+ was used. Data represent the mean+/−SEM of 3-7 individual islet recordings/animal using 6 animals/genotype. Significance was calculated using two-tailed T test.
# [2] = tested on: islets isolated from ankB (+/+) and (+/−) mice; test: Insulin secretion assay, islets from ankB(+/+) and (+/−) mice; type: cell-based, mouse; settings: for potentiation of glucose-stimulated insulin release: Glp-1 100 nM
# Experimental: Islets were isolated from ankB littermates and male Wistar rats by pancreatic perifusion as previously described (28). Islets were maintained in culture medium containing 11 mM glucose until the day of the assay. Insulin secretion was assayed in HEPES balanced salt solution (HBSS) (114 mM NaCl, 4.7 mM KCl, 1.2 mM KH2PO4, 1.16 mM MgSO4, 20 mM HEPES, 2.5 mM CaCl2, 25.5 mM NaHCO3, and 0.2% BSA, pH 7.2). Islets were pre-incubated HBSS containing 3 mM glucose for 2 hours. Insulin secretion was then measured by using static incubation for a 1 h period in HBSS containing 3 mM glucose. Islets were then transferred to HBSS containing 16.7 or 8 mM glucose for 1 hour, and then HBSS containing 16.7 or 8 mM glucose plus 0.1 mM carbachol or 100 nM Glp-1 for 1 hour. Following the incubations, islet samples were normalized for insulin content by extraction with 1 M acetic acid in 0.1% BSA. Static incubation samples and extract samples were analyzed for insulin concentrations via radioimmunoassay with the insulin Coat-a-Count kit (Diagnostic Products, Los Angeles). Values presented represent the mean values+/−SEM.
# wild type rat islets = test: Insulin secretion assay, rat islets treated with adenovirus (siRNA knockdown / rescue); type: cell-based; settings: adenoviral delivery to knockdown islets; p=0.03, n=6
# Experimental: INS-1-derived cell line 823/3 was cultured as described previously (28). Small interfering RNA (siRNA) sequences corresponding to rat ankyrin-B siRNA1: GGCCAGAAGATCTCAAGGA (SEQ ID NO:2), siRNA2: GCTGTGTAGCATTTTAACA (SEQ ID NO:3), or a control siRNA which is siRNA 1 mutated at three base sites: GGCCCGAAGAGCTCAAGGA (SEQ ID NO:4), were cloned into vector EHOO6 and used for construction of Ad-ankB siRNA recombinant adenoviruses by the methods described (29). Complementary DNAs encoding human ankyrin-B or ankyrin-B W/W (7, 8) were used to prepare recombinant adenoviruses (AdCMV-h ankB and h ankB RAN) using the AdEasy system (Stratagene catalog number 240010). An adenovirus containing the green fluorescent protein (GFP) gene (AdCMV-_GFP) was used as a control. Purified viruses were incubated with INS-1 823/3 cells or islets at multiplicities of infection (MOI) of 20-50 for 18 h. Assays were undertaken 72 h later.
# Islets were isolated from ankB littermates and male Wistar rats by pancreatic perifusion as previously described (28). […] Insulin secretion was then measured by using static incubation for a 1 h period in HBSS containing 3 mM glucose. […] Static incubation samples and extract samples were analyzed for insulin concentrations via radioimmunoassay with the insulin Coat-a-Count kit (Diagnostic Products, Los Angeles). […]
molecule,measurement,setting,value
C[N+](C)(C)CCOC(N)=O [carbachol],reduction in Ca2+ release,"[1]; ankB(+/−) islets, carbachol 0.1 mM in buffer containing 5 mM Ca2+",64%
same,reduction in intracellular Ca2+ release,"[1]; ankB(+/−) vs ankB(+/+) islets, Ca2+-free buffer containing carbachol 0.1 mM",~79%
same,reduction in carbachol-stimulated insulin release,"[2]; ankB(+/−) islets vs ankB(+/+), carbachol 0.1 mM, p=0.007, n=6",40%
same,potentiation of insulin release by carbachol,"[2]; wild type islets, stimulatory glucose plus carbachol 0.1 mM",2.1 fold
"full-length human ankyrin-B: full length 220 kD human ankyrin-B, siRNA-resistant, expressed from adenovirus",rescue of impaired carbachol-mediated insulin release,wild type rat islets,−40%
glucagon-like peptide 1 [Glp-1],potentiation of glucose-stimulated insulin release,"[2]; ankB(+/−) islets, p=0.01, n=6",2.1 fold
same,potentiation of glucose-stimulated insulin release,[2]; wild type animals,~1.6 fold
